Reference: article PMC6256925, “The Anti-HIV Actions of 7- and 10-Substituted Camptothecins” (Molecules, 2009)
In brackets after ≈: the same amount, converted by molar mass. Entries after “also recorded” stand apart in the source; their conditions may differ. Like-named read-outs stand apart in the source and are kept apart here.

Columns and labels:
[1] = tested on: HIV-1KM018; assay: Inhibition of HIV-1 p24 antigen production in PBMC; assay type: cell-based
Procedure: Adequate numbers of PHA activated normal PBMC were incubated with HIV-1KM018 (M.O.I. = 0.03) in presence of varying concentrations of the compound. After 3 h of virus adsorption, the cells were washed twice with PBS and incubated with or without various concentration of compound in culture medium supplemented with 50 U/mL human recombinant IL-2 at 1.2 × 10^6 cells/mL for seven days. Half of the medium was changed with corresponding compound concentrations on the third day. At seven days post-infection, HIV-1 p24 antigen in cell-free culture supernatants was analyzed by ELSIA. The percent inhibition of HIV-1 p24 antigen production in PBMC was calculated.

[2] = tested on: PBMC; assay: MTT-based cytotoxicity assay, PBMC; assay type: cell-based; settings: PBMC, MTT
Procedure: (§1) Cell lines (C8166, H9, H9/HIV-1IIIB, Jurkat, Jurkat/HIV-1IIIB) were maintained in RPMI-1640 supplemented with 10% heat-inactivated newborn calf serum (Gibco, Auckland, New Zealand). The cells used in all experiments were in log-phase growth. PBMC from healthy donors were isolated by Ficoll-Hypaque centrifugation, then incubated in complete medium containing 5μg/mL phytohemagglutinin (PHA) (Sigma) and 50 U/mL human recombinant IL-2 for 72 h prior to use for antiviral assays. The laboratory-derived viruses (HIV-1IIIB, HIV-2ROD, HIV-2CBL-20) were obtained from the Medical Research Council (MRC), AIDS Reagent Project (UK) and the NIH AIDS Research and Reference Reagent Program (USA). The clinically isolated HIV-1KM018 was obtained from a naive HIV-1-infected individual in Yunnan Province, China, as described. The 50% HIV-1 tissue culture infectious dose (TCID50) was determined and calculated by the Reed and Muench method. Virus stocks were stored in aliquots at −70 °C.
(§2) Cellular toxicity of compounds 1–3 was assessed by the MTT method, as described previously. Briefly, cells were seeded on a microtiter plate in the absence or presence of various concentrations of compounds in triplicate and incubated at 37 °C in a humid atmosphere of 5% CO2 for three days. Twenty microliters of MTT reagent (5 mg/mL in PBS) was added to each well, then incubated at 37 °C for 4 h. One hundred microliters of 50% DMF-20% SDS was then added. After the formazan was dissolved completely, the plates were read on a Bio-Tek ELx 800 ELISA reader at 595 nm/630 nm. The results were shown as absorbance values, and the CC50 was calculated.

[3] = tested on: HIV-1IIIB; assay: Syncytia assay (CPE inhibition), HIV-1IIIB in C8166 cells; assay type: cell-based
Procedure: (§3) In the presence of 100 μL of various concentrations of the tested compound, C8166 cells (4 × 10^5cells/mL) were infected with virus (HIV-1IIIB, HIV-2CBL-20 or HIV-2ROD) at a multiplicity of infection (M.O.I.) of 0.06. The final volume per well was 200 μL. Control assays were performed without the testing compounds in HIV-1 IIIB infected and uninfected cultures. AZT was included as positive control. After three days of culture, the cytopathic effect (CPE) was measured by counting the number of syncytia in each well under an inverted microscope. EC50 was then calculated.

[4] = tested on: C8166; assay: MTT-based cytotoxicity assay, C8166; assay type: cell-based; settings: C8166, MTT
Procedure: as §2

[5] = parameters: method as in PMID 12775425; settings: cited from earlier work
[6] = tested on: HIV-2CBL-20; assay: Syncytia assay (CPE inhibition), HIV-2CBL-20 in C8166 cells; assay type: cell-based
Procedure: as §3

[7] = tested on: H9/HIV-1IIIB; assay: ELISA in chronically infected H9/HIV-1IIIB cells; assay type: cell-based; settings: Human immunodeficiency virus 1
Procedure: Chronically infected cell with HIV-1IIIB (H9/HIV-1IIIB) were washed three times with PBS to remove free virus particle. 200 µL/well (3 × 10^5 cells/mL) of the cell suspension was cultured for three days in a 96-well culture plate with different concentrations of compound. The p24 antigen in the culture supernatants was assayed by ELISA.

[8] = MTT-based cytotoxicity assay, Jurkat/HIV-1IIIB; assay type: cell-based; settings: human, Jurkat/HIV-1IIIB cells
Procedure: as §2

[9] = biological target: T1, HIV-1 protease (Human immunodeficiency virus type 1 group M subtype B, UniProt P04585); assay: Inhibition assay of recombinant HIV-1 protease activity (fluorescent); assay type: biochemical
T1 construct: The recombinant HIV-1 protease (PR) was expressed and purified, as previously described; made in house
Procedure: The recombinant HIV-1 protease (PR) was expressed and purified, as previously described. HIV-1 PR was diluted in reaction buffer. The compounds were added and incubated for 30 min at room temperature. Fluorescent substrate DABCYL-γ-Abu-Ser-Gln-Asn-Tyr-Pro-Ile-Val-Gln-EDANS (Anaspec, San Jose, USA) was added to initiate the reaction. The mixture was allowed to react for 90 min and the change of the fluorescent signal was monitored. Negative (double distilled water) and positive (1 μM indinavir) controls were included. The percent inhibition of PR activity was calculated.

[10] = tested on: H9/HIV-1IIIB; assay: MTT-based cytotoxicity assay, H9/HIV-1IIIB; assay type: cell-based; settings: 3 days of incubation; listed as 7-Hydroxymethyl-CPT
Procedure: as §2

[11] = MTT-based cytotoxicity assay, H9/HIV-1IIIB; assay type: cell-based; settings: human, H9/HIV-1IIIB cells; H9/HIV-1IIIB, MTT, 3 days
Procedure: as §2

[12] = biological target: T2, HIV-1 integrase (Human immunodeficiency virus type 1 group M subtype B, UniProt P04585); assay: Binding to HIV-1 integrase by SPR (BIAcore)
T2 construct: Integrase was immobilized on the surface of the chip
Procedure: The interaction between the compound and HIV-1 integrase (IN) was determined by SPR using a BIAcore 3000TM biosensor system as previously described. Integrase was immobilized on the surface of the chip. To allow association, various concentrations of the compound diluted in HBS-EP was applied to a chip containing immobilized integrase. Dissociation of the compound from the integrase was monitored in real-time after application of buffer to wash the chip and the kinetic rate constants for dissociation (Kd) was obtained by fitting the real-time data using BIA evaluation software.

[13] = tested on: HIV-2ROD; assay: Syncytia assay (CPE inhibition), HIV-2ROD in C8166 cells; assay type: cell-based
Procedure: as §3

[14] = tested on: HIV-1IIIB/H9; assay: Co-cultivation assay (cell-to-cell fusion C8166 with H9/HIV-1IIIB); assay type: cell-based
Procedure: Cell-to-cell fusion between normal C8166 cells and H9 cells chronically infected withHIV-1IIIB was quantified under an inverted microscope. First, 3 × 10^4 C8166 cells co-cultured with 1 × 10^4 H9/HIV-1IIIB cells in the presence or absence of the compound at varying concentrations. They were incubated at 37 °C in a humidified atmosphere of 5% CO2. Dextran sulfate (DS) was used as positive control. After 6 h incubation, the number of syncytia was scored under an inverted microscope.

[15] = MTT-based cytotoxicity assay, PBMC; assay type: cell-based; settings: human
Procedure: as §1, §2

[16] = biological target: T3, HIV-1 reverse transcriptase (Human immunodeficiency virus type 1 group M subtype B, UniProt P04585); assay: Inhibition assay of recombinant HIV-1 RT activity (ELISA); assay type: biochemical
T3 construct: purchased Roche, Mannheim, Germany
Procedure: HIV-1 reverse transcriptase (RT) activity was measured by the ELISA RT kit using a commercially available kit (Roche, Mannheim, Germany) according to the instructions of the manufacturer. The compounds were incubated with DIG-labeled reaction mixture at 37 °C for 2 h, then anti-DIG-POD solution was added, followed by substrate ABTS. Foscarnet was used as a positive control. The absorbency at 405 nm/490 nm was read on the Bio-Tek ELx 800 ELISA reader.

[17] = MTT-based cytotoxicity assay, C8166; assay type: cell-based; settings: human
Procedure: as §2

[18] = tested on: HIV; parameters: method as in PMID 11725078; settings: cited from earlier work
[19] = tested on: equine anemia virus; parameters: method as in PMID 11725078; settings: cited from earlier work
[20] = tested on: HIV-1; parameters: method as in PMID 11424110; settings: by inducing selective apoptosis of HIV infected cells; cited from earlier work
[21] = tested on: HIV-1; settings: freshly infected U937 monocytoid cells; cited from earlier work
[22] = tested on: HIV-1; parameters: method as in PMID 9453250; settings: latently infected T cell clone; cited from earlier work
[23] = Human immunodeficiency virus 2, 72 h, C8166, HIV-2CBL-20, syncytia, 3 days, read-out: EC50
[24] = Human immunodeficiency virus 1, 168 h, PBMC, HIV-1KM018, p24, 7 days, read-out: EC50
[25] = cell-free system, in words, listed as 7-hydroxymethyl-CPT
[26] = Human immunodeficiency virus 2, 72 h, C8166, HIV-2ROD, syncytia, 3 days, read-out: EC50
[27] = Human immunodeficiency virus 1, 72 h, C8166, HIV-1IIIB, syncytia, 3 days, read-out: EC50
[28] = Human immunodeficiency virus 2, C8166, 72 h

Cc1cn([C@H]2C[C@H](N=[N+]=[N-])[C@@H](CO)O2)c(=O)[nH]c1=O [AZT, reference compound]
EC50 ([1]; PBMC, HIV-1KM018, p24, 7 days): 0.0024 ± 0.0003 µg/mL (≈ 0.00898 µM)
CC50 [2]: 0.45(mg/ml
EC50 ([3]; C8166, HIV-1IIIB, syncytia, 3 days): 0.003 ± 0.0003 µg/mL (≈ 0.0112 µM)
CC50 [4]: 1.12(mg/ml)

CC[C@@]1(O)C(=O)OCc2c1cc1n(c2=O)Cc2cc3c(CN(C)C)c(O)ccc3nc2-1 [Topotecan]
treatment of AIDS-related progressive multifocal leukoencephalopathy [5]: efficient

CC[C@@]1(O)C(=O)OCc2c1cc1n(c2=O)Cc2c-1nc1ccccc1c2CO [Compound 3, 7-Hydroxymethylcamptothecin]
EC50 [6, 23]: 0.0005 ± 0.0001 µg/mL (≈ 0.00132 µM)
EC50 [1, 24]: 0.0009 ± 0.0001 µg/mL (≈ 0.00238 µM)
EC50 [7]: > 17 µg/mL
CC50 at 3 days [8]: 0.041 µg/mL (≈ 0.108 µM)
EC50 [9]: > 106 µM
inhibition of protease [9, 25]: no inhibition; also recorded: did not show any inhibition
selective killing of chronically infected cells (H9/HIV-1IIIB compared with uninfected H9) [10]: no selective killing
CC50 at 3 days [11]: 0.0157 µg/mL (≈ 0.0415 µM)
Kd [12]: 64.9 µM
inhibition of integrase [12, 25]: no inhibition; also recorded: did not show any inhibition
EC50 [13, 26]: 0.0024 ± 0.0002 µg/mL (≈ 0.00634 µM)
EC50 ([14]; Human immunodeficiency virus 1, C8166 with HIV-1IIIB/H9, co-cultivation, 6 h): > 2 µg/mL
inhibition of viral cell-to-cell transmission ([14]; in words): no inhibition
CC50 at 3 days [15]: 0.06 ± 0.0101 µg/mL (≈ 0.159 µM)
EC50 [3, 27]: 0.0008 ± 0.0002 µg/mL (≈ 0.00211 µM)
EC50 [16]: > 44.9 µM
inhibition of reverse transcriptase [16, 25]: no inhibition; also recorded: did not show any inhibition
CC50 at 3 days [17]: 0.159 ± 0.0137 µg/mL (≈ 0.419 µM)

CC[C@@]1(O)C(=O)OCc2c1cc1n(c2=O)Cc2cc3ccccc3nc2-1 [Compound 1, Camptothecin]
EC50 [6, 23]: 0.004 ± 0.0003 µg/mL (≈ 0.0115 µM)
EC50 [1, 24]: 0.0074 ± 0.0011 µg/mL (≈ 0.0212 µM)
inhibition of replication of HIV [18]: weakly inhibit
inhibition of replication of equine anemia virus [19]: weakly inhibit
EC50 [13, 26]: 0.0067 ± 0.0001 µg/mL (≈ 0.0192 µM)
CC50 at 3 days ([15]; PBMC (peripheral blood mononuclear cells), PHA-stimulated, PBMC, MTT, read-out: CC50): 0.0759 ± 0.0131 µg/mL (≈ 0.218 µM)
EC50 [3, 27]: 0.0057 ± 0.0001 µg/mL (≈ 0.0164 µM)
CC50 ([4]; 3 days): 137.8 ± 7.8 ng/mL (≈ 0.396 µM)
CC50 at 3 days ([17]; C8166 cells, C8166, MTT, 3 days, read-out: CC50): 0.138 µg/mL (≈ 0.396 µM)

CC[C@@]1(O)C(=O)OCc2c1cc1n(c2=O)Cc2cc3cc(O)ccc3nc2-1 [Compound 2, 10-hydroxycamptothecin]
EC50 [6, 28]: 0.0132 ± 0.001 µg/mL (≈ 0.0362 µM)
EC50 ([1]; Human immunodeficiency virus 1, PBMC, 168 h): 0.0105 ± 0.0004 µg/mL (≈ 0.0288 µM)
EC50 [13, 28]: 0.025 ± 0.0009 µg/mL (≈ 0.0686 µM)
CC50 at 3 days ([15]; PBMC, MTT, read-out: CC50): 0.0363 ± 0.0118 µg/mL (≈ 0.0996 µM)
EC50 ([3]; Human immunodeficiency virus 1, C8166, 72 h): 0.0334 ± 0.0003 µg/mL (≈ 0.0917 µM)
CC50 at 3 days ([17]; C8166, MTT, 3 days, read-out: CC50): 0.141 ± 0.0097 µg/mL (≈ 0.387 µM)

CC[C@@]1(O)C(=O)OCc2c1cc1n(c2=O)Cc2cc3c([N+](=O)[O-])cccc3nc2-1 [9-nitrocamptothecin (9NC), 9-nitrocamptothecin]
HIV-1 replication [20]: reduced
inhibition of HIV-1 replication [21]: showed inhibition
tumor necrosis factor-mediated activation of HIV-1 [22]: inhibited
